Laboratory results taken from PubChem BioAssay AID1845219 (Molecular Pharmacology Branch, DTP, NCI, 2023).
Values joined by “and” are separate entries in the source; they are usually repeats but may differ in a detail not shown here. Equal entries are not always repeated. Each block holds one compound with its values, some of them ahead of it.

Test system: SYO-1 tumor spheroids, viability % test/control
Assay: Anticancer human tumor SYO-1 cell line growth inhibition;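 also: spheroids exposed to agents for 7 days before viability read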;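 as to viability, T/C: 100% = DMSO vehicle control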
Settings: spheroids with HUVEC and MSC; for viability, T/C: stronger effect = lower value
Text: Multicellular complex tumor spheroid response to DNA repair inhibitors in combination with DNA-damaging drugs
This study explores the anticancer activities of DNA-damaging drugs and inhibitors of DNA damage repair, both as single agents and in combinations. Complex tumor spheroids comprised of malignant cells, endothelial cells and mesenchymal stem cells served as an in vitro model for human solid tumors. This model system incorporates physiologically relevant features and patient-derived or established malignant cell lines with clinically relevant genetic alterations from many tumor types. Twenty-six patient-derived or established malignant cell lines were evaluated representing sarcoma, melanoma, small cell lung cancer (SCLC), non-small cell lung cancer (NSCLC), as well as bladder, ovarian and pancreatic cancers. The concentration ranges selected for each drug and investigational agent were based upon clinically achievable concentrations if the clinical Cmax of the agent was known.
Compounds. The drugs and compounds olaparib (NSC753686), talazoparib (NSC767125), berzosertib (NSC777718), elimusertib (NSC800525), nedisertib (NSC802822), VX-984 (NSC792969), AZD-1390 (NSC803789), temozolomide (NSC362856), topotecan (NSC609699), trabectedin (NSC813783), staurosporine (NSC755774), and gemcitabine (NSC613327) were obtained from the National Cancer Institute (NCI) Developmental Therapeutics Program Chemical Repository. The FDA-approved anticancer drug set is available from the Developmental Therapeutics Program at https://dtp.cancer.gov/organization/dscb/obtaining/available_plates.htm. […] The stock solutions were prepared in dimethyl sulfoxide (DMSO, Sigma-Aldrich, St. Louis, MO, cat. D2650) at 400-fold the tested concentration and stored at -70 degrees C. Prior to their use, the stock solutions were diluted in fresh medium and the final DMSO concentration in the assay was 0.25% (v/v). All drugs and investigational agents were tested over a range starting from a high concentration at or near the clinical Cmax and decreasing in half-log increments. If the clinical Cmax for an agent had not been determined, the highest concentration tested was 10 microM.
Cell Lines. The patient-derived cancer cell (PDC) lines: 156681-154-R-J1-PDC, 283228-195-R-J1-PDC, 287954-098-R-J1-PDC, 292921-168-R-J2-PDC, 349418-098-R-PDC, 425362-245-T-J1-PDC, 556581-035-R-J1-PDC, and BL0293-F563-PDC were received from the NCI Patient-Derived Models Repository (PDMR, https://pdmr.cancer.gov). The established cell lines HS-SY-2 (RRID:CVCL_8719), MPNST, and SYO-1 (RRID:CVCL_7146) were obtained from the Sloan Kettering Institute. The alveolar soft parts sarcoma cell line ASPS-1 (RRID:CVCL_S738) was established at the NCI and grown from internal seed stocks. The following established cell lines were purchased from the American Type Culture Collection (ATCC, Manassas, VA): G-401 (ATCC, cat. CRL-1441, RRID:CVCL_0270), SW982 (ATCC, cat. HTB-93, RRID:CVCL_1734), VA-ES-BJ (ATCC, cat. CRL-2138, RRID:CVCL_1785), NCI-H719 (ATCC, cat. CRL-5837, RRID:CVCL_1582), NCI-H196 (ATCC, cat. CRL-5823, RRID:CVCL_1509), NCI-H841 (ATCC, cat. CRL-5845, RRID:CVCL_1595), NCI-H1618 (ATCC, cat. CRL-5879, RRID:CVCL_1480), NCI-H1876 (ATCC, cat. CRL-5902, RRID:CVCL_1503), DMS 114 (ATCC, cat. CRL-2066; RRID:CVCL_1174), NCI-H211 (ATCC, cat. CRL-5824; RRID:CVCL_1529), and SW 1271 (ATCC, cat. CRL-2177, RRID:CVCL_1716). The small cell lung cancer cell line COR-L88 was purchased from Sigma-Aldrich (cat. 92031917-1VL, RRID:CVCL_1141). The non-small cell lung cancer cell lines NCI-H226 (RRID:CVCL_1544) and NCI-H322M (RRID:CVCL_1557) were established at the NCI and grown from internal seed stocks. Pooled donor human umbilical vein endothelial cells (HUVEC, Lonza, cat. CC-2519) and human mesenchymal stem cells (hMSC, Lonza, cat. PT-2501) were purchased from Lonza (Walkersville, MD).
Cell Culture. All cells were maintained in an incubator at 37 degrees C and 5% CO2 with 95% humidity. […]

[1] = compound alone, run of 12/02/2019
[2] = compound alone, run of 12/12/2019

Structure (SMILES): CC(C)n1c(=O)n(C)c2cnc3cc(F)c(-c4ccc(OCCCN5CCCCC5)nc4)cc3c21
viability, T/C (compound 0.0316 µM): 105% and 101% and 96.7%
viability, T/C (compound 0.1 µM): 103% and 101% and 98.9%
viability, T/C (compound 0.316 µM): 84.4% and 102% and 93.8%
viability, T/C (compound 1 µM): 103% and 102% and 104%
viability, T/C (compound 3.16 µM): 107% and 103% and 104%
viability, T/C (compound 10 µM): 64.1% and 48% and 48.3%
IC50 (curve of compound): > 10 µM and 9.6 µM and 9.62 µM

Structure (SMILES): CC1COCCN1c1cc(-c2ccnn2C)c2ccnc(-c3ccn[nH]3)c2n1 (stereo not given)
viability, T/C (compound 0.1 µM): 3.02% and 9.27% and 5.04%
viability, T/C (compound 0.316 µM): 1.96% and 2.61% and 2.62%
viability, T/C (compound 1 µM): 1.13% and 1.61% and 1.44%
viability, T/C (compound 3.16 µM): 0.59% and 0.92% and 0.71%
viability, T/C (compound 10 µM): 0.6% and 0.99% and 0.58%
IC50 (curve of compound): < 0.0316 µM and 0.0321 µM

IC50 [1]: 5.58 nM [middle of 5 runs]
IC50 [2]: 6.49 nM [middle of 5 runs]
Structure (SMILES): CC[C@@]1(O)C(=O)OCc2c1cc1n(c2=O)Cc2cc3c(CN(C)C)c(O)ccc3nc2-1
viability, T/C (compound 0.003 µM): 92.2% [middle of 10 runs]
viability, T/C (compound 0.03 µM): 1.67% [middle of 10 runs]
viability, T/C (compound 0.0949 µM): 1.54% [middle of 10 runs]
viability, T/C (compound 0.3 µM): 1.88% [middle of 10 runs]

Structure (SMILES): CNCc1ccc(-c2cc(-c3nc(-c4ccc(S(=O)(=O)C(C)C)cc4)cnc3N)on2)cc1
viability, T/C (compound 0.00949 µM): 101% and 100% and 109%
viability, T/C (compound 0.03 µM): 101% and 99.2% and 99%
viability, T/C (compound 0.0949 µM): 72.5% and 86.8% and 89.3%
viability, T/C (compound 0.3 µM): 3.37% and 4.34% and 3.43%
viability, T/C (compound 0.949 µM): 0.29% and 0.76% and 0.36%
viability, T/C (compound 3 µM): 0.18% and 0.19% (2×)
IC50 (curve of compound): 0.138 µM and 0.159 µM and 0.161 µM

Structure (SMILES): COc1cc(C)[nH]c(=O)c1CN1CCc2c(Cl)cc(C(OC)C3COC3)c(Cl)c2C1=O (stereo not given)
viability, T/C (compound 0.0316 µM): 114% and 106% (2×)
viability, T/C (compound 0.1 µM): 110% and 115% and 112%
viability, T/C (compound 0.316 µM): 95.1% and 101% and 106%
viability, T/C (compound 1 µM): 78.1% and 82.5% and 90.5%
viability, T/C (compound 3.16 µM): 67.7% and 80% and 82.7%
viability, T/C (compound 10 µM): 59.9% and 73.2% and 75.6%
IC50 (curve of compound): > 10 µM

Structure (SMILES): COc1cc2c(cc1O)CCNC21CSC2c3c(OC(C)=O)c(C)c4c(c3C(COC1=O)N1C(O)C3Cc5cc(C)c(OC)c(O)c5C(C21)N3C)OCO4 (stereo not given)
viability, T/C (compound 30 pM): 97.6% [middle of 10 runs]
viability, T/C (compound 0.0003 µM): 14.7% [middle of 10 runs]
viability, T/C (compound 0.000949 µM): 1.05% [middle of 10 runs]
viability, T/C (compound 0.003 µM): 0.12% [middle of 7 runs]
IC50 [2]: 0.179 nM [middle of 9 runs]

Structure (SMILES): COc1ccc([C@@H](O)c2cc(-c3ncnc4cc(N5CCOCC5)ccc34)c(F)cc2Cl)nn1
viability, T/C (compound 0.0316 µM): 109% and 108% and 104%
viability, T/C (compound 0.1 µM): 108% and 107% and 101%
viability, T/C (compound 0.316 µM): 104% and 106% and 103%
viability, T/C (compound 1 µM): 105% and 101% and 102%
viability, T/C (compound 3.16 µM): 66.1% (2×) and 84.2%
viability, T/C (compound 10 µM): 7.28% and 14.2% and 20.4%
IC50 (curve of compound): 4.31 µM and 4.52 µM and 5.86 µM

Structure (SMILES): Cc1cc(C)c(CNC(=O)c2cc(-c3ccc(CN4CCOCC4)cc3)cc3c2cnn3C2CCCC2)c(=O)[nH]1
viability, T/C (compound 0.0316 µM): 106% and 109% and 103%
viability, T/C (compound 0.1 µM): 106% and 109% and 100%
viability, T/C (compound 0.316 µM): 108% and 97.8% and 99.2%
viability, T/C (compound 1 µM): 107% and 104% and 103%
viability, T/C (compound 3.16 µM): 112% and 104% (2×)
viability, T/C (compound 10 µM): 106% and 67% and 88.7%
IC50 (curve of compound): > 10 µM

Structure (SMILES): Cc1sc2c(c1C)C(c1ccc(Cl)cc1)=NC(CC(=O)Nc1ccc(O)cc1)c1nnc(C)n1-2 (stereo not given)
viability, T/C (compound 0.00949 µM): 93.8% and 91.9% and 91.3%
viability, T/C (compound 0.03 µM): 90.7% and 90.8% and 85.5%
viability, T/C (compound 0.0949 µM): 31.8% and 49.4% and 54.7%
viability, T/C (compound 0.3 µM): 1.04% and 3.66% and 1.07%
viability, T/C (compound 0.949 µM): 0.73% and 0.9% and 0.49%
viability, T/C (compound 3 µM): 0.63% and 0.72% and 0.4%
IC50 (curve of compound): 0.0665 µM and 0.0934 µM and 0.105 µM

Structure (SMILES): Cn1ncnc1[C@H]1c2n[nH]c(=O)c3cc(F)cc(c23)N[C@@H]1c1ccc(F)cc1
viability, T/C (compound 0.00949 µM): 81.1% and 79.7% and 87.3%
viability, T/C (compound 0.03 µM): 29.5% and 23.3% and 18.3%
viability, T/C (compound 0.0949 µM): 4.75% and 5.28% and 5.09%
viability, T/C (compound 0.3 µM): 2.61% and 2.85% and 2.82%
viability, T/C (compound 0.949 µM): 1.54% and 2.38% and 1.48%
viability, T/C (compound 3 µM): 1.36% and 1.92% and 1.26%
IC50 (curve of compound): 0.019 µM and 0.0174 µM and 0.0177 µM

IC50 [1]: > 100 µM and 88.3 µM
Structure (SMILES): Cn1nnc2c(C(N)=O)ncn2c1=O
viability, T/C (compound 1 µM): 102% [middle of 9 runs]
viability, T/C (compound 3.16 µM): 98.2% [middle of 10 runs]
viability, T/C (compound 10 µM): 100% [middle of 10 runs]
viability, T/C (compound 31.6 µM): 106% [middle of 10 runs]

Structure (SMILES): O=C(c1cc(Cc2n[nH]c(=O)c3ccccc23)ccc1F)N1CCN(C(=O)C2CC2)CC1
viability, T/C (compound 0.0949 µM): 102% (2×) and 103%
viability, T/C (compound 0.3 µM): 100% and 103% and 99.2%
viability, T/C (compound 0.949 µM): 90.7% and 93.7% and 94.1%
viability, T/C (compound 3 µM): 14.7% and 32.7% and 11%
viability, T/C (compound 9.49 µM): 3.59% and 3.04% and 2.51%
viability, T/C (compound 30 µM): 2.83% and 2.91% and 2.43%
IC50 (curve of compound): 1.76 µM and 2.16 µM and 1.75 µM

Structure (SMILES): [2H]c1nc(C)nc([2H])c1-c1cc(NC[C@@H](C)c2cccc3c(C(=O)NC)ccnc23)ncn1
viability, T/C (compound 0.0316 µM): 107% and 105% and 96.2%
viability, T/C (compound 0.1 µM): 105% and 104% and 102%
viability, T/C (compound 0.316 µM): 105% (2×) and 102%
viability, T/C (compound 1 µM): 105% and 99% and 98.5%
viability, T/C (compound 3.16 µM): 104% (2×) and 96.3%
viability, T/C (compound 10 µM): 100% and 95.5% and 101%
IC50 (curve of compound): > 10 µM
